Test results: patent publication US5629332A, “Triazole compound and use thereof” (Nihon Nohyaku Co., Ltd., priority 1994, dated 1997)

Experiments:
[1] = system: Candida albicans IFO 1270; test: growth inhibition of Candida albicans IFO 1270 in culture (Test Example 1, Table 2); format: cell-based; details: 37° C., Sabouraud's glucose broth; for Growth inhibition ratio (%) 0.1 μg/ml / inhibition of growth at 0.1 µg/mL: final compound concentration 0.1 μg/ml; for Growth inhibition ratio (%) 0.1 μg/ml / Growth inhibition ratio (%) 10 μg/ml: 48 hrs; for Growth inhibition ratio (%) 10 μg/ml / inhibition of growth at 10 µg/mL: final compound concentration 10 μg/ml; for inhibition of growth at 0.1 µg/mL / inhibition of growth at 10 µg/mL: Candida albicans, IFO1270, 48 h; for inhibition of growth at 0.1 µg/mL: read-out: Growth inhibition ratio (%) 0.1 μg/ml; for inhibition of growth at 10 µg/mL: read-out: Growth inhibition ratio (%) 10 μg/ml
Experimental: A 0.1 ml portion of a cell suspension of Candida albicans IFO 1270 (1.0×10^7 cells/ml) and a 0.1 ml portion of each test compound dissolved in dimethylsulfoxide were added to 9.8 ml of Sabouraudp's glucose broth.
Final compound concentrations in the culture were 10 μg/ml or 0.1 μg/ml. After incubation On a reciprocal shaker at 37° C. for 48 hrs, growth inhibition ratio of each test compound was measured.

[2] = system: C. albicans IFO 1270; test: survival of mice after intravenous inoculation with C. albicans, oral treatment (Test Example 2, Table 3); format: in vivo; details: 10 mg/kg orally once a day for 3 consecutive days, 10 days after inoculation, male ddy mice; for responders at 10 mg/kg: Candida albicans, IFO1270, po, 240 h, read-out: Survival ratio (%)
Experimental: Male ddy mice at six weeks of age were divided into a control group of 10 animals and drug administration groups of 5 animals each.
Subculture was carried out at 37° C. for 24 hrs Sabouraudp's glucose agar (manufactured by Difco laboratory).
A cell suspension of C. albicans IFO 1270 (2.5×10^7 cells/ml) was intravenously inoculated in an amount of 4 ml/kg, and each test compound was orally administered in a dose of 10 mg/kg once a day for 3 consecutive days. Examination of survival ratio was carried out 10 days after the inoculation of fungi.

Molecule | Growth inhibition ratio (%) 0.1 μg/ml [1] | Growth inhibition ratio (%) 10 μg/ml [1] | Survival ratio (%) [2] | inhibition of growth at 0.1 µg/mL [1] | inhibition of growth at 10 µg/mL [1] | responders at 10 mg/kg [2]
2-(2,4-difluorophenyl)-2-[1-methyl-2-(4-fluorophenyl)-ethyl]-1-triazolyl-2-ethanol [compound 11] | 45% | 74% | 60% | – | – | –
CC(=O)N1CCN(c2ccc(OC[C@H]3CO[C@](Cn4ccnc4)(c4ccc(Cl)cc4Cl)O3)cc2)CC1 (relative stereo) [Control drug A, cis1-acetyl-4-[4-[[2-(2,4-dichlorophenyl)-2-(imidazol-1-ylmethyl)-1,3-dioolan-4-yl]methoxy]phenyl]piperazine, reference compound] | – | – | – | 59% | 77% | 20%
CC(Cc1ccc(C#N)cc1)C(O)(Cn1cncn1)c1ccc(F)cc1F (single isomer, unassigned) [compound 8, 1-triazolyl-2-(2,4-difluorophenyl)-3-methyl-4-(4-cyanophenyl)-2-butanol] | – | – | – | 59% | 78% | 100%
CC(Cc1ccc(F)cc1)C(O)(Cn1cncn1)c1ccc(F)cc1F (centres unmarked) [Compound No. 1] | – | – | – | 71% | 85% | 80%
CC(Cc1ccc(OC(F)(F)F)cc1)C(O)(Cn1cncn1)c1ccc(F)cc1F (centres unmarked) [Compound No. 10] | – | – | – | – | – | 100%
CC(CCCc1ccc(Cl)cc1)C(O)(Cn1cncn1)c1ccc(F)cc1F (centres unmarked) [compound 2] | – | – | – | 60% | 76% | 80%
CC(CCCc1ccc(Cl)cc1)C(O)(Cn1cncn1)c1ccc(F)cc1F (centres unmarked) [compound 3] | 58% | 74% | 60% | – | – | –
CC(CSc1ccc(F)cc1)C(O)(Cn1cncn1)c1ccc(F)cc1 (centres unmarked) [compound 4, 1-triazolyl-2-(4-fluorophenyl)-3-methyl-4-(4-fluorophenyl)-mercapto-2-butanol] | – | – | – | 6% | 72% | 0%
CC(CSc1nccn1C)C(O)(Cn1cncn1)c1ccc(F)cc1 (centres unmarked) [compound 5] | – | – | – | 5% | 10% | 0%
CC(Cc1ccc(C#N)cc1)C(O)(Cn1cncn1)c1ccc(F)cc1F (centres unmarked) [compound 7, 1-triazolyl-2-(2,4-difluorophenyl)-3-methyl-4-(4-cyanophenyl)-2-butanol] | – | – | – | 53% | 74% | 100%
CC(Cn1cncn1)C(O)(Cn1cncn1)c1ccc(F)cc1 (centres unmarked) [compound 14] | – | – | – | 2% | 20% | 20%
CC(Cc1ccc(-n2cncn2)cc1)C(O)(Cn1cncn1)c1ccc(F)cc1F (centres unmarked) [compound 15] | – | – | 100% | 53% | 66% | –
CC(Cc1ccc(-n2cncn2)cc1)C(O)(Cn1cncn1)c1ccc(F)cc1F (centres unmarked) [compound 16] | – | – | 100% | – | – | –
CC(Cc1ccc(-n2cncn2)cc1)C(O)(Cn1cncn1)c1ccc(F)cc1F (centres unmarked) [compound 17] | – | – | 60% | – | – | –
CC(Cc1cccnc1)C(O)(Cn1cncn1)c1ccc(F)cc1F (centres unmarked) [compound 18] | – | – | – | – | – | 40%
CC(Cc1ccc(Cl)cc1SC(F)F)C(O)(Cn1cncn1)c1ccc(F)cc1F (centres unmarked) [compound 20] | – | – | – | 53% | 68% | 100%
CC(Cc1ccc([N+](=O)[O-])cc1)C(O)(Cn1cncn1)c1ccc(F)cc1F (centres unmarked) [compound 22] | – | – | – | 58% | 70% | 100%
CC(CCc1ccc(F)cc1)C(O)(Cn1cncn1)c1ccc(F)cc1F (centres unmarked) [compound 25] | – | – | – | 60% | 70% | –
CC(Cc1ccc(C=NNC=O)cc1)C(O)(Cn1cncn1)c1ccc(F)cc1F (centres unmarked) [compound 27] | – | – | – | – | – | 40%
CC(Cc1ccc(Cl)cc1Cl)C(O)(Cn1cncn1)c1ccc(F)cc1F (centres unmarked) [compound 28] | – | – | – | – | – | 100%
CC(Cc1ccc(S(C)(=O)=O)cc1)C(O)(Cn1cncn1)c1ccc(F)cc1F (centres unmarked) [compound 30] | – | – | – | 6% | 63% | 100%
CC(Cc1ccc(-n2cnn(C)c2=O)cc1)C(O)(Cn1cncn1)c1ccc(F)cc1F (centres unmarked) [compound 31] | – | – | – | – | – | 80%
CC(Cc1ccc(F)cc1F)C(O)(Cn1cncn1)c1ccc(F)cc1F (centres unmarked) [compound 32] | – | – | – | – | – | 80%
CC(CCc1ccc(C#N)cc1)C(O)(Cn1cncn1)c1ccc(F)cc1F (centres unmarked) [compound 35] | – | – | – | 60% | 74% | –
CC(CCc1ccc(-n2cncn2)cc1)C(O)(Cn1cncn1)c1ccc(F)cc1F (centres unmarked) [compound 37, 2-(2,4-difluorophenyl)-3-methyl-5-(4-triazolphenyl)-1-triazolyl-pentan-2-ol] | – | – | – | – | – | 80%
CSc1cc(Cl)ccc1CC(C)C(O)(Cn1cncn1)c1ccc(F)cc1F (centres unmarked) [compound 39] | – | – | – | 53% | 68% | 100%
CC(Cc1ccc(C(F)(F)F)cc1)C(O)(Cn1cncn1)c1ccc(F)cc1F (centres unmarked) [compound 43] | – | – | – | – | – | 100%
